Ten compounds from PubChem BioAssay (NCI) can be followed below.

Where “and” joins values, the source holds several entries; their conditions need not be identical. Identical values can stand only once.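 Exposure lasted 48 hours, with cells grown in 96-well plates and compounds tested at five concentrations. The concentration for 50% growth inhibition is given as GI50. TGI marks complete inhibition of growth.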

What all share (assay): NCI tumour cell line growth inhibition, 48 h
Assay [1] concerns 786-0 renal.
Assay [2] deals with COLO 205 colon.
Assay [3] has as its system HL-60(TB) leukemia.
The subject of assay [4] is HOP-62 NSCLC.
The test system of assay [5] is IGROV1 ovarian.
For assay [6], the system named is M14 melanoma.
Assay [7] deals with OVCAR-5 ovarian.
In assay [8] the test system is SR leukemia.
For assay [9], the system named is HCT-116 colon.
In assay [10] the test system is SNB-75 CNS.

For the compound `COc1ccc2c3c([nH]c2c1[N+](=O)[O-])C(C)N(C(=O)/C=C/c1ccccc1)CC3` (stereo not given), the TGI in assay [1] was 25.8 µM; in assay [2], over 100 µM; in [3] it was 7.01 µM; in assay [4] it was 70.4 µM; in assay [5] it was over 100 µM; in assay [6], over 100 µM. In addition, the TGI in assay [7] and in assay [8] was over 100 µM throughout.

In the case of `Cn1c(-c2c(N)n(Cc3ccc(Cl)cc3)c3nc(C#N)c(C#N)nc23)nc2ccccc21`, the GI50 in [1] is 7.69 µM; in [2] it was 3.13 µM; in [9] it was 8.52 µM; in assay [3], 16.9 µM; in assay [4], 11.7 µM; in assay [5], 1.54 µM. Also, the GI50 in [6] was 10.6 µM; in assay [7] it was 6.74 µM; in assay [8] it was 8.26 µM. Further, the TGI is 17.4 µM in [1]; 16.4 µM in assay [2]; over 50 µM in assay [9]; over 50 µM in assay [3]; over 50 µM in assay [4]; 7.71 µM in [5]. The figures for the TGI in [6], in assay [7] and in [8] were 42.6 µM, 16 µM and over 50 µM, respectively.

As to `COc1cc2c3c(n(CCCn4cccn4)c(=O)c2cc1OC)-c1cc2c(cc1C3=O)OCO2`, the GI50 is 0.429 µM in assay [1]; 5.25 µM in assay [2]; 1.47 µM in assay [9]; 0.449 µM in assay [4]; 1.8 µM in assay [5]; 0.461 µM in [6]. For the same compound, the results for the GI50 in [7], in [10] and in assay [8] were 14 µM, 1.53 µM and 0.0465 µM, respectively. Also, the TGI in assay [1] was 2.76 µM; in [2] it was over 100 µM; in [9], 15.9 µM; in [4], 11.1 µM; in assay [5], 29 µM; in [6] it was 5.07 µM. Also, the values for the TGI in [7], in assay [10] and in assay [8] were 64.4 µM, 15.4 µM and 1.57 µM, respectively.

In the case of `CC(=O)C1C(=O)C(=O)N(c2ccc(Cl)cc2C)C1=O` (stereo not given), the TGI in [1], in assay [2], in assay [9], in assay [3], in assay [4] and in [5] was over 100 µM in each case. Further, the TGI in assay [6], in assay [7] and in assay [8] was over 100 µM each time.

On to `S=C(S)NCCCn1ccnc1`, for which the TGI in [1], in assay [2], in assay [9], in assay [3], in assay [4] and in assay [5] was over 100 µM in each case. The TGI in assay [6], in [7] and in [8] was over 100 µM throughout.

In the case of `CCOC(=O)NC(=O)c1cn(-c2ccc(CCOC(=O)CCCCCCCCC(=O)OCCc3ccc(-n4cc(C(=O)NC(=O)OCC)c(=O)[nH]c4=O)cc3)cc2)c(=O)[nH]c1=O`, the TGI in [1], in assay [2], in assay [9], in [3], in assay [4] and in [5] was over 100 µM throughout. Further, the TGI in assay [6], in assay [7] and in assay [8] was over 100 µM in each case.

As to `C#Cc1cccc(N2C(=O)CC(=P(c3ccccc3)(c3ccccc3)c3ccccc3)C2=O)c1`, the TGI in assay [1] is 75.7 µM; in assay [2] it was over 100 µM; in [9], over 100 µM; in assay [3], 38.2 µM; in assay [4], over 100 µM; in [6], over 100 µM. The TGI in [7], in assay [10] and in assay [8] was over 100 µM throughout.

Take `CC(=O)[CH-]C(=O)c1ccccc1.CC(=O)[CH-]C(=O)c1ccccc1.CC(C)CCCC(C)[C@H]1CCC2[C@@H]3CCC4C[C@@H]([O-])CC[C@]4(C)C3CC[C@@]21C.CC(C)CCCC(C)[C@H]1CCC2[C@@H]3CCC4C[C@@H]([O-])CC[C@]4(C)C3CC[C@@]21C.Cl.[Ti+4]` (stereo not given in full): the GI50 in assay [1] was over 25 µM; in assay [2], over 25 µM; in assay [9] it was over 25 µM; in assay [3], 8.29 µM; in [4] it was over 25 µM; in [5], over 25 µM. Besides, the GI50 in [6], in assay [7] and in assay [10] was over 25 µM each time. Moreover, the TGI was over 25 µM in assay [1]; over 25 µM in assay [2]; over 25 µM in assay [9]; 24.9 µM in [3]; over 25 µM in assay [4]; over 25 µM in [5]. Besides, the TGI in [6], in assay [7] and in assay [10] was over 25 µM in each case.

Take `CCN(CC)CCNc1ccc(CO)c2sc3ccccc3c(=O)c12`: the GI50 in assay [1] is 4.99 µM and 19.4 µM; in assay [9], 4.28 µM; in assay [3], 8.47 µM [middle of 4 runs]; in assay [6], 1.99 µM and 12.4 µM and 2.03 µM; in [7], 5.05 µM; in assay [10], 4.27 µM and 14.4 µM and 2.33 µM. The GI50 in assay [8] is 2.29 µM. Moreover, the TGI was 18.8 µM and 52.1 µM in assay [1]; 3 µM and 13.9 µM and 18 µM in [2]; 24.5 µM [middle of 4 runs] in [3]; 26 µM [middle of 4 runs] in assay [4]; 4.2 µM and 25.1 µM and 4.3 µM in assay [6]; 25.1 µM [middle of 4 runs] in assay [7]. For the same compound, in assay [10], the TGI is 17.7 µM and 29.1 µM and 9.2 µM.

On to `CC(=O)[CH-]C(=O)c1ccccc1.CC(=O)[CH-]C(=O)c1ccccc1.[O-]c1ccc(O)cc1.[O-]c1ccc(O)cc1.[Ti+4]`, for which the GI50 in assay [1] is 13.2 µM; in assay [2], 18.2 µM; in assay [9] it was 15.1 µM; in assay [3] it was 3.71 µM; in [4] it was 18.8 µM; in [5], 23.7 µM. In addition, the GI50 in assay [6] was 15.6 µM; in [7], 35.1 µM; in [10], 14.3 µM. Also, the TGI in [1] was determined as 26 µM; in [2], 32.6 µM; in assay [9], 28.3 µM; in assay [3], 30.6 µM; in [4], 41.5 µM; in assay [5] it was 63 µM. Also, the TGI in [6] was determined as 30.8 µM; in assay [7], 91.4 µM; in [10] it was 28.1 µM.
